From the NIST ThermoML archive (doi:10.1021/je200883w)

Conditions: 101.33 kPa, Liquid; for viscosity: Concentric cylinders viscometry; for mass density: Vibrating tube method

CCCCn1cc[n+](C)c1C.O=S(=O)([N-]S(=O)(=O)C(F)(F)F)C(F)(F)F
Conditions | mass density [kg/m3] | viscosity [mPa·s]
273.15 K | 1443.3 | 518.55
278.15 K | 1438.4 | 353.44
283.15 K | 1433.5 | 249.26
288.15 K | 1428.7 | 180.5
293.15 K | 1424 | 134.22
298.15 K | 1419.4 | 102.19
303.15 K | 1414.8 | 79.46
308.15 K | 1410.1 | 62.97
313.15 K | 1405.5 | 50.76
318.15 K | 1401 | 41.53
323.15 K | 1396.4 | 34.45
328.15 K | 1391.8 | 28.91
333.15 K | 1387.3 | 24.54
338.15 K | 1382.8 | 21.03
343.15 K | 1378.4 | 18.17
348.15 K | 1373.9 | 15.83
353.15 K | 1369.3 | 13.9
358.15 K | 1364.4 | 12.3
363.15 K | 1359.8 | 10.94
368.15 K | 1355.5 | 9.794
373.15 K | 1351.3 | 8.813
